Assay results published in patent US8986957B2, “Cell culture medium” (Novartis AG, priority 2010, dated 2015).

Experiments:
[1] = system: CHO cells expressing mAb3 and mAb4
Experimental: In a further set of experiments, choline chloride is added in various concentrations (40; 80; 120; 160, 200; 240; 500; 840; 1000; 3000 und 5000 mg/l in total) to powder growth medium. The media thus obtained are used for producing mAb3 and mAb4, respectively, generally as outlined above.
Normalized antibody concentrations, normalized viable cell densities, and viabilities, for mAb3 and in addition for mAb4 the normalized cell specific productivity for the whole duration of the cultivation (13 resp. 17 days) are further depicted in FIG. 14 to FIG. 24.

[2] = system: CHO cells expressing mAb3; settings: higher concentrations of choline chloride in production medium vs standard 240 mg/L
Experimental: Three aliquots of this parental cell line are transfected to express three different monoclonal antibodies mAb1, mAb2, mAb3, respectively.
All nine shake flasks (three for each experiment) are run under the same conditions, except for the medium. The conditions involve a fed-batch culture with two daily bolus feeds starting at days 3 and 5 with a feeding rate of 2 and 0.4% of the initial culture volume per day; a temperature shift from 36.5° C. to 33° C. at day 5; 10% CO2 in the incubator; a shaking rate of 150 rpm (stroke radius=25 mm). The cell growth/viability of the cells as well as the resulting titer of recombinant antibody expressed are determined.

[3] = choline chloride 3000 mg/l and more

C[N+](C)(C)CCO.[Cl-] [choline chloride]
viability and antibody concentration ([1]; 40 mg/l choline chloride in total, after 13 or 17 days in culture): lowest values
viability ([1]; all choline concentrations higher than 40 mg/l): higher
cell growth [1, 3]: do not grow
viability of the cells [1, 3]: do not negatively affect the viability
normalized antibody concentration ([1]; choline chloride 3000 mg/l and more, after 13 or 17 days): below 1
cell growth or polypeptide titer [2]: did not result in improved cell growth or polypeptide titer
